Laboratory results reported in patent US6281354A, “Analogs of duocarmycin and cc-1065” (The Scripps Research Institute, priority 1999, dated 2001).
Where two headings read alike, the source gives them in different places.

Tests used:
[1] = In vitro cytotoxic activity; conditions: for cytotoxic activity of seco precursor compared with cyclopropane agent: versus 17-20, 23, 30 and 31, respectively; for cytotoxic potency of the two enantiomers compared: natural versus unnatural enantiomer
[2] = system: duplex DNA (w794, w836, c988, c820, c1346); assay type: biochemical, SV40; conditions: for sequence preference at the alkylation site: consensus alkylation sequence; for concentration at which DNA is alkylated / more efficient DNA alkylation than (+)-N--BOC-DSA: natural enantiomers
[3] = Chemical/aqueous solvolysis reactivity followed by UV; assay type: physicochemical; conditions: for solvolysis rate constant κ, pH 3: pH 3, 50% CH3 OH-buffer
Source text: The solvolysis reactivities of N--BOC-CNA (78) and CNA (79) were followed spectrophotometrically by UV at both pH 3 (50% CH3 OH-buffer, buffer=4:1:20 v/v/v 0.1 M citric acid, 0.2 M Na2 HPO4, H2 O) and pH 7 (50% CH3 OH--H2 O). […] Particularly informative are comparisons of the benzo series of agents that differ only in the C-ring size (i.e., 76-79). Solvolysis reactivity smoothly increases through the series CBI<CBQ<CNA with both the N--BOC derivatives and the free NH derivatives.
Aqueous Solvolysis of N--BOC-CNA (78) and CNA (79). Samples of 78 (150 μg) and 79 (150 [g) were dissolved in CH3 OH (1.5 mL) and the resulting solutions were mixed with aqueous buffer (pH 3, 1.5 mL, 4:1:20 (v:v:v) 0.1 M citric acid, 0.2 M Na2 HPO4, and deionized H2 O respectively). Similarly, a solution of 78 (150 μg) in CH3 OH (1.5 mL) was mixed with deionized H2 O (pH 7, 1.5 mL). The UV spectra of the solutions were measured immediately after mixing with the appropriate aqueous solution. The blank and the solvolysis reaction solutions were stoppered, protected from light, and allowed to stand at 25° C. The total reaction times reflect those required to observe no further change in absorbance. For the solvolysis of 78 at pH 3, the UV spectrum was taken every 30 s for 10 min and then every 3 min for the next 40 min. The decrease of the absorbance at 319 nm was monitored. […] For the solvolysis of 78 at pH 7, the UV spectrum was monitored every 5 min for 19 h. […] For the solvolysis of 79 at pH 3, the UV spectrum was monitored every 2 min for the first 110 min and then every 10 min for the next 4 h. The decrease in the absorbance at 345 nm was recorded.

[4] = 50% ch3oh-buffer, pH 3, pH 3, 50% CH3 OH-buffer, 25° C., read-out: solvolysis t1/2, pH 3 (h) (converted)
[5] = 50% ch3oh-buffer, pH 3, pH 3, 50% CH3 OH-buffer, 25° C., read-out: solvolysis t1/2, pH 3 (min)

COC(=O)c1cc2c3c(ccc2[nH]1)N(C(=O)c1cc2c([nH]1)C(=O)C=C1N(C(=O)OC(C)(C)C)CC4CC124)CC3 (stereo not drawn) [compound 19, 6-[(Methyl 1,2-Dihydro-3H-pyrrolo[3,2-e]indole-3-yl)carbonyl-7-carboxylate]-2-((tert-butyloxy)carbonyl)-1,2,8,8a-tetrahydrocyclopropa[c]-pyrrolo[3,2-e]indol-4-one]
more potent cytotoxicity than simple derivatives N--BOC-DSA (4) and N--Ac-DSA ([1]; natural enantiomers): less than 10 ×
AT-rich adenine N3 alkylation selectivity (size of site) [2]: 3.5 base-pair

COC(=O)c1cc2cc(NC(=O)c3cc4c([nH]3)C(=O)C=C3N(C(=O)OC(C)(C)C)CC5CC345)ccc2[nH]1 (stereo not drawn) [compound 17, N-(Methyl 1H-Indol-5-yl-2-carboxylate)-2-((tert-butyloxy)carbonyl)-1,2,8,8a-tetrahydrocyclopropa[c]pyrrolo[3,2-e]indol-4-one-7-carboxamide]
cytotoxic potency compared with simple derivatives N--BOC-DSA (4) and N--Ac-DSA ([1]; natural enantiomers): essentially indistinguishable
AT-rich adenine N3 alkylation selectivity (size of site) [2]: 3.5 base-pair

O=C1C=C2NCCCC3CC23c2ccccc21 (stereo not drawn) [compound 79, 1,2,3,4,11,11a-Hexahydrocyclopropa[c]naphtho[2,1-b]azepin-6-one]
more reactive than the corresponding CBI derivative (solvolysis) [3]: 1500 ×
reactivity difference, CNA versus CBQ [3]: over a hundred-fold difference in reactivity
solvolysis reactivity/stability in words or rank order [3]: sufficiently reactive to undergo rapid solvolysis even at pH 7
half-life [3, 4]: 0.62 h
half-life [3, 5]: 0.617 h
solvolysis reactivity/stability in words or rank order ([3]; listed as CNA): CBI<CBQ<CNA
solvolysis reactivity/stability in words or rank order ([3]; listed as CNA (79)): considerably more stable than N--BOC-CNA (78)
solvolysis rate constant κ, pH 3 ([3]; 25° C.): 3.10×10^-4 s^-1

COC(=O)c1cc2c3c(ccc2[nH]1)N(C(=O)c1cc2c4c(cc(O)c2[nH]1)N(C(=O)c1cc2cc(OC)c(OC)c(OC)c2[nH]1)CC4CCl)CC3 (stereo not drawn) [compound 29, 7-[(Methyl 1,2-Dihydro-3H-pyrrolo[3,2e]indole-3-yl)carbonyl-7-carboxylate]-3-[(5,6,7-trimethoxyindol-2-yl)carbonyl]-1-(chloromethyl)-5-hydroxy-1,2-dihydro-3H-pyrrolo[3,2-e]indole]
cytotoxic activity of seco precursor compared with cyclopropane agent [1]: not distinguishable

COC(=O)c1cc2c3c(ccc2[nH]1)N(C(=O)c1cc2c([nH]1)C(=O)C=C1N(C(=O)c4cc5cc(OC)c(OC)c(OC)c5[nH]4)CC4CC124)CC3 (stereo not drawn) [compound 31]
cytotoxic potency compared with typical agents [1]: essentially equipotent with the typical agents

COC(=O)c1cc2c([nH]1)C(=O)C=C1N(C(=O)c3cc4cc(OC)c(OC)c(OC)c4[nH]3)C[C@@H]3C[C@@]123 [ent-(-)-duocarmycin SA, reference compound]
AT-rich adenine N3 alkylation selectivity (size of site) [2]: 3.5 base-pair

COC(=O)c1cc2c([nH]1)C(=O)C=C1N(C(=O)OC(C)(C)C)CC3CC123 (stereo not drawn) [N--BOC-DSA]
AT-rich adenine N3 alkylation selectivity (size of site) [2]: 2 base-pair
reaction time required for substantial or complete DNA alkylation ([2]; 25-37° C.): 2 to 7 days
sequence preference at the alkylation site [2]: 5'-AA>5'-TA

COC(=O)c1cc2c([nH]1)C(=O)C=C1N(C(=O)c3cc4c5c(ccc4[nH]3)N(C(=O)c3cc4c6c(ccc4[nH]3)N(C(N)=O)CC6)CC5)CC3CC123 (stereo not drawn) [compound 61]
cytotoxic potency of the two enantiomers compared [1]: nearly equipotent

CC(C)(C)OC(=O)N1CCCC2CC23C1=CC(=O)c1ccccc13 (single isomer, unassigned; (+)) [(+)-78]
cytotoxic potency of the two enantiomers compared [1]: more potent activity

COC(=O)c1cc2c([nH]1)C(=O)C=C1N(C(C)=O)CC3CC123 (stereo not drawn) [compound 40, Methyl 2-Acetyl-1,2,8,8a-tetrahydrocyclopropa[c]pyrrolo[3,2-e]indol-4-one-6-carboxylate]
sequence preference at the alkylation site [2]: 5'-AA>5'-TA
concentration at which DNA is alkylated [2]: 10^-3 M
more efficient DNA alkylation than (+)-N--BOC-DSA [2]: approximately 10 ×
unnatural enantiomer less effective at DNA alkylation than natural enantiomer [2]: approximately 10 ×

COC(=O)c1cc2c3c(ccc2[nH]1)N(C(=O)c1cc2c4c(cc(O)c2[nH]1)N(C(=O)c1cc2c5c(ccc2[nH]1)N(C(N)=O)CC5)CC4CCl)CC3 (stereo not drawn) [compound 28, 7-[(Methyl 1,2-Dihydro-(3H-pyrrolo[3,2-e]indole-3-yl)carbonyl-7-carboxy-late)-3-(3-carbamoyl-1,2-dihydro-3H-pyrrolo[3,2-e]indol-7-yl)carbonyl]-1-(chloromethyl)-5-hydroxy-1,2-dihydro-3H-pyrrolo[3,2-e]indole]
cytotoxic activity of seco precursor compared with cyclopropane agent [1]: not distinguishable

O=C1C=C2NCCC3CC23c2ccccc21 (stereo not drawn) [CBQ, reference compound]
solvolysis reactivity difference, CBI versus CBQ [3]: 10 -fold
solvolysis reactivity/stability in words or rank order [3]: CBI<CBQ<CNA

COc1cc2cc(C(=O)N3CCCC4CC45C3=CC(=O)c3ccccc35)[nH]c2c(OC)c1OC (stereo not drawn) [compound 98, N-[(5,6,7-Trimethoxyindol-2-yl)carbonyl]-1,2,3,4,11,11a-hexahydrocyclopropa-[c]naphtho[2,1-b]azepin-6-one]
more potent cytotoxicity than N--BOC-CNA (78), natural enantiomer ([1]; natural enantiomer): 5-10 ×
difference in cytotoxic potency versus N--BOC-CNA, unnatural enantiomer ([1]; unnatural enantiomers): 1-2 ×

COC(=O)c1cc2cc(NC(=O)c3cc4cc(NC(=O)c5cc6c7c(cc(O)c6[nH]5)N(C(C)=O)CC7CCl)ccc4[nH]3)ccc2[nH]1 (stereo not drawn) [compound 22, N-{2-[N-(2-Methoxycarbonyl-1H-indol-5-yl)]carbamoyl-1H-indol-5-yl}-3-acetyl-1-(chloromethyl)-5-hydroxy-1,2-dihydro-3H-pyrrolo[3,2-e]indole-7-carboxamide]
cytotoxic activity of seco precursor compared with cyclopropane agent [1]: not distinguishable

COC(=O)N1CCCC2CC23C1=CC(=O)c1ccccc13 (stereo not drawn) [compound 97, N-(Methoxycarbonyl)-1,2,3,4,11,11a-hexahydrocyclopropa[c]naphtho[2,1-b]azepin-6-one]
more reactive than N--BOC-DSA (solvolysis) [3]: 10^3 -10^4 ×
half-life ([3]; 50% methanol-water, pH 7, no added acid catalysis, read-out: solvolysis t1/2, pH 7 (converted)): 2.1 h

O=C1C=C2NCC3CC23c2ccccc21 (stereo not drawn) [CBI, reference compound]
solvolysis reactivity difference, CBI versus CBQ [3]: 10 -fold
solvolysis reactivity/stability in words or rank order [3]: CBI<CBQ<CNA

CC(C)(C)OC(=O)N1CCCC2CC23C1=CC(=O)c1ccccc13 (stereo not drawn) [compound 78]
more reactive than N--BOC-DSA (solvolysis) [3]: 10^3 -10^4 ×
more reactive than the corresponding CBI derivative (solvolysis) [3]: 4750 ×
solvolysis reactivity/stability in words or rank order [3]: sufficiently reactive to undergo rapid solvolysis even at pH 7
half-life [3, 4]: 0.028 h
half-life [3, 5]: 0.0283 h
half-life ([3]; 50% ch3oh-h2o, pH 7, pH 7, 50% CH3 OH--H2 O, 25° C., read-out: solvolysis t1/2, pH 7 (converted)): 2.1 h
half-life ([3]; 50% methanol-water, pH 7, pH 7, no added acid catalysis, read-out: solvolysis t1/2, pH 7 (converted)): 2.1 h
solvolysis reactivity/stability in words or rank order ([3]; listed as N--BOC-CNA): between that of N--BOC-CBQ and the exceptionally reactive N--BOC-CI
solvolysis rate constant κ, pH 3 ([3]; 25° C.): 6.90×10^-3 s^-1
solvolysis rate constant κ, pH 7 ([3]; pH 7, 50% CH3 OH--H2 O, 25° C.): 9.16×10^-5 s^-1
solvolysis t1/2, pH 7 (h) ([3]; pH 7, no added acid catalysis): 2.1 h

COC(=O)c1cc2c([nH]1)C(=O)C=C1N(C(=O)OC(C)(C)C)C[C@H]3C[C@]123 [(+)-N--BOC-DSA]
AT-rich adenine N3 alkylation selectivity (size of site) [2]: 2 base-pair

COC(=O)c1cc2c([nH]1)C(=O)C=C1N(C(=O)OC(C)(C)C)C[C@@H]3C[C@@]123 [ent-(-)-N--BOC-DSA]
AT-rich adenine N3 alkylation selectivity (size of site) [2]: 2 base-pair

COC(=O)c1cc2c([nH]1)C(=O)C=C1N(C(=O)OC)CC3CC123 (stereo not drawn) [compound 41, Methyl 2-(Methoxycarbonyl)-1,2,8,8a-tetrahydrocyclopropa[c]pyrrolo[3,2-e]indol-4-one-6-carboxylate]
sequence preference at the alkylation site [2]: 5'-AA>5'-TA
concentration at which DNA is alkylated [2]: 10^-3 M
more efficient DNA alkylation than (+)-N--BOC-DSA [2]: approximately 10 ×
unnatural enantiomer less effective at DNA alkylation than natural enantiomer [2]: approximately 10 ×
